Molecules are shown by their SMILES.

Assay [1] deals with FaDu head and neck carcinoma. The experiment in a line: FaDu head and neck carcinoma xenograft in SCID mice. The assay is classed as in vivo. As to conditions: plasma. As for the experimental part: In order to investigate the effect of b-AP15 on tumor growth in vivo, the compound was administered to mice bearing either a human tumor or mouse xenografts. FaDu head and neck carcinoma were chosen as a SCID mouse xenograft both as a model for a p53mut tumor and since this model is suitable for studies using circulating cell death biomarkers (30). Significant inhibition of FaDu tumor growth was observed following daily treatment with b-AP15 (treated/control tumor volume, T/C=0.4, p=<0.001). Similarly b-AP15 (day on/2 day off schedule) inhibited tumor growth in C57BL/6J mice bearing lung carcinomas (T/C=0.16, p=<0.01). […] To examine whether b-AP15 promotes tumor cell death in vivo, plasma levels of cytokeratin-18 (CK18) were analyzed. […] To investigate the ability of b-AP15 to inhibit proteasome deubiquitination in vivo, accumulation of poly-ubiquitin conjugates was analyzed by means of antibodies specific for K48 linked polyubiquitin chains. Histological analysis of treated tumors confirmed the accumulation of poly-ubiquitin conjugates. […]
Animal experiments were conducted in full accordance with Swedish governmental statutory regulations on animal welfare under permission from local ethical committees. […] All mice were monitored and weighed daily. […] After injection, tumor growth was measured daily with calipers and the tumor volume calculated by the formula L=W^2=0.44. […]

A further assay has as its target T1, USP5 (Homo sapiens, UniProt P45974).
T1 sequence (P45974 1-858): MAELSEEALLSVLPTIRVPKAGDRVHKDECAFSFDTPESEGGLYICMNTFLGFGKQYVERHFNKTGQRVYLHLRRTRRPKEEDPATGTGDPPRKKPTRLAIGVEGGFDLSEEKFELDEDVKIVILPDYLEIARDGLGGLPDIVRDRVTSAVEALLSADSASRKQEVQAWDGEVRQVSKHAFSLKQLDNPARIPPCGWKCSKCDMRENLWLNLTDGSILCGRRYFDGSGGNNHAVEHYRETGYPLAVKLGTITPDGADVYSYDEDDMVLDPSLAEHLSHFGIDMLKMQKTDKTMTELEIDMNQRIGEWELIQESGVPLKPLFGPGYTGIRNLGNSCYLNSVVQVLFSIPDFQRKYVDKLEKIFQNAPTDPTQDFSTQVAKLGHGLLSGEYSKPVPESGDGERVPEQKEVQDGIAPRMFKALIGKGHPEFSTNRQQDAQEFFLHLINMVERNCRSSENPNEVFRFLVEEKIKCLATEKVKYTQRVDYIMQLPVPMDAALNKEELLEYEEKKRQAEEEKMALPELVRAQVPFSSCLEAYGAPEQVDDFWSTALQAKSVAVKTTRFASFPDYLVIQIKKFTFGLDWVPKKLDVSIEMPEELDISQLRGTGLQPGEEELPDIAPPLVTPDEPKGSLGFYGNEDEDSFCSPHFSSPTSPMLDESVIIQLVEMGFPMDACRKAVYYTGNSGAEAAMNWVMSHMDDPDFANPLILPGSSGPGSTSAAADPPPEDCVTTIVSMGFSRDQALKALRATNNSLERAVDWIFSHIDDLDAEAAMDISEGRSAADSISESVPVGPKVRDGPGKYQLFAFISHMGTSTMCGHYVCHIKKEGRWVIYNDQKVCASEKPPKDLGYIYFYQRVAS
The assay is described as follows: HA-UbVS competitive labelling, non-proteasomal DUB. In kind it is binding. An excerpt: The deubiquitinating activity of the proteasome is attributed to the action of three DUBs, UCHL5, USP14 and POH1, all localized within the 19S RP 26-28. Both UCHL5 and USP14 are sensitive to N-ethylmaleimide (NEM), a general inhibitor of cysteine proteases, whereas POH1 is insensitive to inhibition by NEM but sensitive to metal chelators such as N,N,N,N-tetrakis-(2-pyridylmethyl)ethylenediamine (TPEN) (29). […] To identify specifically which DUBs were inhibited by b-AP15 treatment, competitive labelling experiments were performed using hemagglutinin tagged ubiquitin vinylsulphonone (HA-UbVS), an active site directed probe that irreversibly reacts with DUBs of the cysteine class (26).
For labelling of DUBs in cell lysates sub confluent cells were harvested by trypsinization, washed three times with PBS, and centrifuged at 1500 RPM for 5 min. Cell pellets were lysed with buffer (50 mM HEPES pH 7.4, 250 mM sucrose, 10 mM MgCl2, 2 mM ATP, 1 mM DTT) on ice for 15 min. Debris was removed by centrifugation and 25 μg of protein was labelled with 1 μM HA-UbVS for 30 min at 37° C. Samples were resolved by SDS-PAGE and analyzed by immunoblotting with indicated antibodies.

For the compound `C=CC(=O)N1C/C(=C\c2ccc([N+](=O)[O-])cc2)C(=O)/C(=C/c2ccc([N+](=O)[O-])cc2)C1` [b-AP15], the “levels of human CK18 derived from FaDu tumors in the circulation” value in assay [1] (total CK18, p=0.01) is “significant increase”. Moreover, the “levels of caspase cleaved CK18 (CK18-Asp396) in circulation” value in assay [1] (compared with total levels) is “increased moderately”. The “activity of non-proteasomal DUB USP5” value on USP5 is listed as “without affecting the activity”.

For the origin of these results see US9856511B2, “Protease deubiquitinating inhibitor screening” (priority 2011, dated 2018).
